In one experiment the test system is K562 cell line. The experiment can be described thus: MTT assay: cytotoxicity against the K562 cell line. It counts as cell-based. The conditions noted are these: Homo sapiens, K562 cells, 72 h, growth inhibition. In outline:
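Fifteen thousand K562 cells per well were exposed in triplicate to a compound dilution series for 72 h at 37 °C, 5% CO2. Viability was measured by MTT absorbance at 550 nm relative to untreated control, and IC50 was obtained by nonlinear regression.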

In a further experiment the target is T1, purified tubulin (Sus scrofa, UniProt P02550+P02554).
T1 construct: purchased Cytoskeleton #BK006P
The experiment is described as follows: Tubulin polymerisation assay (CytoDYNAMIX Screen kit, absorbance at 340 nm). It counts as biochemical. The following applies: for inhibition at 5 µM: 5 μM compound, 4 mg/ml tubulin, read-out: % Inhibition of tubulin polymerization at 5 μM; for IC50: tubulin polymerization. On the procedure: The polymerization of purified tubulin was monitored spectrophotometrically by the change in absorbance at 340 nm using the CytoDYNAMIX Screen kit (#BK006P, Cytoskeleton) according to the instructions of the manufacturer. […] The absorbance was measured at 1 minute intervals for 60 minutes. The test compound was added to a 4 mg/ml tubulin solution containing 10% glycerol and 1 mM GTP in Buffer 1 (Buffer 1: 80 mM PIPES; 2 mM MgCl2; 0.5 mM EGTA, pH 6.9). Increased absorbance indicates increase in microtubule formation from tubulin heterodimers.

Experiment [1] has as its target T2, colchicine site on tubulin (biotinylated porcine tubulin) (Sus scrofa, UniProt P02550+P02554).
T2 construct: biotin (chemical label)
The experiment is described as follows: Tubulin displacement assay (3H-colchicine radioligand binding, SPA). The conditions noted are these: competition with 50 nM [3H]-colchicine, 4 h at 37° C.; read-out: IC50. On the procedure:
The assay was developped following the method published by Tahir et al. (2001) and others using biotinylated porcine tubulin captured to streptavidin coated yttrium silicate scintillation proximity assay (YSi SPA) beads in a PIPES/EGTA/MgCl2/GTP buffer. […] IC50s were determined using GraphPad Prism Version 5.01 and the sigmoidal dose response with variable slope curve fit.

Experiment [2] has as its system Endothelial cells (HUVEC). The experiment can be described thus: Neovessels formation inhibition (capillary tube formation on Matrigel). It counts as cell-based. The conditions noted are these: Homo sapiens, HUVEC on Matrigel, compounds overnight. On the procedure: The capability of compounds to inhibit the formation of capillaries was evaluated in vitro. Twenty thousand Endothelial cells (HUVEC) were placed on a Matrigel matrix and allowed to form capillary tubes in the presence or absence of the compounds overnight. The cells were stained with calcein AM, and the effect of the compounds on capillary tube formation was assessed using an inverted fluorescent microscope (Nikon). The reference compound used in this assay AVE-8063 is 3-amino-deoxycombretastatin A-4.

The next experiment deals with HUVEC. The experiment is described as follows: Pre-established vessels disruption (capillary tubes on Matrigel). It counts as cell-based. The conditions noted are these: Homo sapiens, HUVEC tubes formed 5 hours, then compounds overnight. On the procedure:
To explore the effect of the compounds on pre-established vasculature, twenty thousand cells (HUVEC) were seeded and incubated over Matrigel for 5 hours to allow the capillary tubes to form. Then, compounds were added and incubated overnight. The disappearance of existing vasculature was monitored with fluorescent microscopy.

The mark [3] stands for this setting: read-out: Neovessels Formation Inhibition Number of Branch Junctions IC50.
[4] abbreviates: read-out: Neovessels Formation Inhibition Total Tubule Length IC50.
The mark [5] stands for this setting: read-out: Pre-established Vessels Disruption Number of Branch Junctions IC50.
Where [6] appears, read: read-out: Pre-established Vessels Disruption Total Tubule Length IC50.

This is an account of results in patent US20130131018A1, “SUBSTITUTED ISOQUINOLINES AND THEIR USE AS TUBULIN POLYMERIZATION INHIBITORS” (Exonhit S.A., priority 2010, published 2013).

For orientation: IC50 means the concentration at which inhibition is half-maximal. One may read the inhibition as the percentage by which the read-out fell short of the control.

Structures can show the parent of a compound that is named as a salt. Where two headings read alike, the source gives them in different places.

T2 sequence (P02554 whole entry): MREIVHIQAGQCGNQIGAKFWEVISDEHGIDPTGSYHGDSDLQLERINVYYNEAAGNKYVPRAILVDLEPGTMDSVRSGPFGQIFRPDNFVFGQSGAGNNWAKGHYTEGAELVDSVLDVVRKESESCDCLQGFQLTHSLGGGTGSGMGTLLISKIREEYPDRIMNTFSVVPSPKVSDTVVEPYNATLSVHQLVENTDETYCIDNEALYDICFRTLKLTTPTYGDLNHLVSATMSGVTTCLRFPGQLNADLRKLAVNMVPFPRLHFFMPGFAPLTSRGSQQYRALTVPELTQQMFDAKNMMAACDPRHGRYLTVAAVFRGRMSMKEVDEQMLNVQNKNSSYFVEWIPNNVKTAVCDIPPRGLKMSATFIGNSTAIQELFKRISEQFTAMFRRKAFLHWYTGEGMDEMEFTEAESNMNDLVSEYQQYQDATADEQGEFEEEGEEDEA
T2 sequence (P02550 whole entry): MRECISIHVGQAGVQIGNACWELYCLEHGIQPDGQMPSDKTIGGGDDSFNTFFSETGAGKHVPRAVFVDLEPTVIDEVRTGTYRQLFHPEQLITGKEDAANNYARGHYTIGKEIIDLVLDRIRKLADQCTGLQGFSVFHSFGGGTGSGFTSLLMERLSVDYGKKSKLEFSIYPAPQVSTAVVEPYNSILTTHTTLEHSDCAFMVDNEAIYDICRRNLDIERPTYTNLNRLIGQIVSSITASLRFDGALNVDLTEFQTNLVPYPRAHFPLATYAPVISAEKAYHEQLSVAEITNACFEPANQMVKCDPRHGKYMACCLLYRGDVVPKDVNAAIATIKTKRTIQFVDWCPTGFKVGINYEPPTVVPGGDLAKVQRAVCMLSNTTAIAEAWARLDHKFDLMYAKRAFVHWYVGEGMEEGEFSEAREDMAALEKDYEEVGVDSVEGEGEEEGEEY
T1 sequence (P02554 whole entry): as the sequence (P02554 whole entry) above
T1 sequence (P02550 whole entry): as the sequence (P02550 whole entry) above

`CCOc1ccc2c(Cc3cc(OC)c(OC)c(OC)c3)cncc2c1O` [Compound 1, 4-(3,4,5-Trimethoxybenzyl)-7-ethoxyisoquinolin-8-ol hydrochloride]: the IC50 with K562 cell line is 29.1 nM; on purified tubulin, 1190 nM; in experiment [1], 220 nM; in experiment [2] (setting [3]), 38.5 nM; in experiment [2] (setting [4]), 54.5 nM. On purified tubulin, the inhibition at 5 µM was determined as 85%.
For the compound `CCOc1ccc2c(Cc3cc(OC)c(OC)c(OC)c3)cncc2c1N` [Compound 3, 7-Ethoxy-4-(3,4,5-trimethoxybenzyl)isoquinolin-8-amine dihydrochloride], the concentration for half-maximal inhibition (IC50) in the experiment with K562 cell line stood at 10.7 nM; on purified tubulin, 1040 nM; in experiment [1] it was 170 nM; in experiment [2] (setting [3]), 15.3 nM; in experiment [2] (setting [4]) it was 21.8 nM; in the experiment on HUVEC (setting [5]) it was 14.9 nM. In the experiment on HUVEC (setting [6]), the IC50 was 45.6 nM. The inhibition at 5 µM on purified tubulin was 76.6%.
Take `COc1cc(Cc2cncc3c(OC)c(OC)ccc23)cc(OC)c1OC` [Compound 10, 4-(3,4,5-Trimethoxybenzyl)-7,8-dimethoxyisoquinoline hydrochloride]: the IC50 is 283 nM in the experiment with K562 cell line, 3440 nM against purified tubulin and 1600 nM in experiment [1].
In the case of `CCOc1ccc2c(C(=O)c3cc(OC)c(OC)c(OC)c3)cncc2c1N` [Compound 29, (8-Amino-7-ethoxyisoquinolin-4-yl)(3,4,5-trimethoxyphenyl)methanone hydrochloride], the half-inhibitory concentration (IC50) in the experiment with K562 cell line stood at 1.64 nM; against purified tubulin it was 880 nM; in experiment [2] (setting [3]) it was 1.04 nM; in experiment [2] (setting [4]), 1.47 nM; in the experiment with HUVEC (setting [5]), 1.78 nM; in the experiment with HUVEC (setting [6]) it was 2.26 nM. Further, at purified tubulin, the inhibition at 5 µM amounted to 71.3%.
`C=CCOc1c(OC)cc(Cc2cncc3c(O)c(OCC)ccc23)cc1OC` [Compound 32, 4-(4-(Allyloxy)-3,5-dimethoxybenzyl)-7-ethoxyisoquinolin-8-ol hydrochloride]: the IC50 with K562 cell line was determined as 21.5 nM; on purified tubulin, 1500 nM; in experiment [2] (setting [3]), 12.4 nM; in experiment [2] (setting [4]) it was 21.9 nM; in the experiment with HUVEC (setting [5]) it was 20 nM; with HUVEC (setting [6]), 48.8 nM. Moreover, on purified tubulin, the inhibition at 5 µM turned out to be 63.4%.
As for `CCOc1ccc2c(C(=O)c3cc(OC)c(OC)c(OC)c3)cncc2c1` [Compound 40, (7-Ethoxyisoquinolin-4-yl)(3,4,5-trimethoxyphenyl)methanone hydrochloride], the IC50 turned out to be 19.6 nM in the experiment on K562 cell line; 1130 nM against purified tubulin; 8.2 nM in experiment [2] (setting [3]); 12.9 nM in experiment [2] (setting [4]); 32.8 nM in the experiment with HUVEC (setting [5]); 53.4 nM in the experiment with HUVEC (setting [6]). Also, on purified tubulin, the inhibition at 5 µM is 58.8%.
For the compound `CCOc1ccc2c(C(=O)c3cc(OC)c(OCC)c(OC)c3)cncc2c1O` [Compound 56, (4-Ethoxy-3,5-dimethoxyphenyl)(7-ethoxy-8-hydroxyisoquinolin-4-yl)methanone hydrochloride], the IC50 was determined as 4.39 nM in the experiment on K562 cell line; 1940 nM against purified tubulin; 10.7 nM in experiment [2] (setting [3]); 12.2 nM in experiment [2] (setting [4]); 14.4 nM in the experiment with HUVEC (setting [5]); 16.1 nM with HUVEC (setting [6]). Moreover, the inhibition at 5 µM on purified tubulin is 65.1%.
As to `CCOc1ccc2c(C(=O)c3cc(OC)c(OCC)c(OC)c3)cncc2c1OS(N)(=O)=O` [Compound 57, 7-Ethoxy-4-(4-ethoxy-3,5-dimethoxybenzoyl)isoquinolin-8-yl sulfamate], the IC50 with K562 cell line was determined as 2.69 nM; in experiment [1], 91.9 nM; in experiment [2] (setting [3]), 2.65 nM; in experiment [2] (setting [4]), 3.97 nM; in the experiment on HUVEC (setting [5]), 4.37 nM; with HUVEC (setting [6]), 6.72 nM. The inhibition at 5 µM at purified tubulin worked out at 17%.
As for `CCOc1ccc2c(C(=O)c3cc(OC)c(OCC)c(OC)c3)cncc2c1N` [Compound 58, (8-amino-7-ethoxyisoquinolin-4-yl)(4-ethoxy-3,5-dimethoxyphenyl)methanone hydrochloride], the IC50 in the experiment on K562 cell line is 1.23 nM; on purified tubulin, 3490 nM; in experiment [2] (setting [3]) it was 0.53 nM; in experiment [2] (setting [4]), 0.59 nM; in the experiment on HUVEC (setting [5]) it was 0.99 nM; in the experiment on HUVEC (setting [6]), 1.36 nM. For the same compound, at purified tubulin, the inhibition at 5 µM came to 38.2%.
Take `CCOc1ccc2c(C(=O)c3cc(OC)c(OCC)c(OC)c3)cncc2c1NS(N)(=O)=O` [Compound 59, 7-Ethoxy-4-(4-ethoxy-3,5-dimethoxybenzoyl)isoquinolin-8-yl sulfamide]: the IC50 was found to be 7.04 nM in the experiment with K562 cell line; 745 nM in experiment [1]; 8.32 nM in experiment [2] (setting [3]); 25.2 nM in experiment [2] (setting [4]); 27.1 nM in the experiment on HUVEC (setting [5]); 38.2 nM with HUVEC (setting [6]). The inhibition at 5 µM on purified tubulin worked out at 21.5%.
Take `CCCOc1c(OC)cc(Cc2cncc3c(N)c(OCC)ccc23)cc1OC` [Compound 64, 4-(3,5-Dimethoxy-4-propoxybenzyl)-7-ethoxyisoquinolin-8-amine dihydrochloride]: the IC50 in the experiment with K562 cell line worked out at 11.2 nM; on purified tubulin it was 900 nM; in experiment [2] (setting [3]) it was 7.02 nM; in experiment [2] (setting [4]), 9.54 nM; with HUVEC (setting [5]), 7.41 nM; in the experiment on HUVEC (setting [6]) it was 14.7 nM. In addition, the inhibition at 5 µM on purified tubulin came out at 79.5%.
`CCCOc1c(OC)cc(C(=O)c2cncc3c(OC(C)=O)c(OCC)ccc23)cc1OC` [Compound 65, 4-(3,5-Dimethoxy-4-propoxybenzoyl)-7-ethoxyisoquinolin-8-yl acetate]: the IC50 in the experiment with K562 cell line turned out to be 3.81 nM; in experiment [2] (setting [3]) it was 2.88 nM; in experiment [2] (setting [4]), 4.23 nM; in the experiment on HUVEC (setting [5]) it was 3.36 nM; with HUVEC (setting [6]), 9.92 nM. Moreover, on purified tubulin, the inhibition at 5 µM amounted to 13%.
On to `CCCOc1c(OC)cc(C(=O)c2cncc3c(O)c(OCC)ccc23)cc1OC` [Compound 67, (3,5-Dimethoxy-4-propoxyphenyl)(7-ethoxy-8-hydroxyisoquinolin-4-yl)methanone hydrochloride], for which the half-inhibitory concentration (IC50) came to 4.64 nM in the experiment with K562 cell line; 38.7 nM in experiment [1]; 3.84 nM in experiment [2] (setting [3]); 4.8 nM in experiment [2] (setting [4]); 9.18 nM with HUVEC (setting [5]); 12.6 nM in the experiment on HUVEC (setting [6]). For the same compound, the inhibition at 5 µM at purified tubulin was determined as 10%.
As to `CCOc1ccc2c(C(=O)c3cc(OC)c(OC)c(OC)c3)cncc2c1OC(C)=O` [Compound 96, 7-Ethoxy-4-(3,4,5-trimethoxybenzoyl)isoquinolin-8-yl acetate], the IC50 in the experiment on K562 cell line amounted to 5.85 nM; in experiment [1] it was 3300 nM; in experiment [2] (setting [3]) it was 5.07 nM; in experiment [2] (setting [4]), 8.1 nM; in the experiment with HUVEC (setting [5]), 9.14 nM; in the experiment with HUVEC (setting [6]), 15.3 nM. Besides, the inhibition at 5 µM on purified tubulin was found to be 54.5%.
Turning to `CCOc1ccc2c(C(=O)c3cc(OC)c(OC)c(OC)c3)cncc2c1O` [Compound 97, (7-Ethoxy-8-hydroxyisoquinolin-4-yl)(3,4,5-trimethoxyphenyl)methanone hydrochloride], the IC50 in the experiment with K562 cell line amounted to 4.86 nM; in experiment [1], 41.4 nM; in experiment [2] (setting [3]), 4.04 nM; in experiment [2] (setting [4]), 5.52 nM; in the experiment on HUVEC (setting [5]) it was 6.65 nM; in the experiment on HUVEC (setting [6]), 8.82 nM. For the same compound, the inhibition at 5 µM at purified tubulin worked out at 4%.
Take `CCOc1ccc2c(C(=O)c3cc(OC)c(OC)c(OC)c3)cncc2c1NS(N)(=O)=O` [Compound 105, N-(7-Ethoxy-4-(3,4,5-trimethoxybenzoyl)isoquinolin-8-yl)sulfamide hydrochloride]: the IC50 in the experiment on K562 cell line stood at 4.18 nM; in experiment [2] (setting [3]), 5.71 nM; in experiment [2] (setting [4]), 8.06 nM; in the experiment on HUVEC (setting [5]), 9.27 nM; in the experiment with HUVEC (setting [6]), 9.3 nM. Moreover, at purified tubulin, the inhibition at 5 µM came to 35%.
Consider `CC[C@]1(O)C[C@@H]2CN(CCc3c([nH]c4ccccc34)[C@@](C(=O)OC)(c3cc4c(cc3OC)N(C)[C@H]3[C@@](O)(C(=O)OC)[C@H](OC(C)=O)[C@]5(CC)C=CCN6CC[C@]43[C@@H]65)C2)C1` [Vinblastine, reference compound], for which the IC50 was 3.66 nM in the experiment with K562 cell line; 1050 nM on purified tubulin; 1.55 nM in experiment [2] (setting [3]); 3.44 nM in experiment [2] (setting [4]); 2.09 nM in the experiment with HUVEC (setting [5]); 5.39 nM with HUVEC (setting [6]). Besides, the inhibition at 5 µM on purified tubulin came to 77.7%.
